Values quoted from earlier work, collected in US7705017B2, “Compounds for treatment of neurodegenerative diseases” (En Vivo Pharmaceuticals, Inc., priority 2004, dated 2010).

Legend:
[1] = system: Histone Deacetylase-Like Protein (HDLP); details: HDLP deacetylates histones in vitro
[2] = system: Huntington's disease in a mouse model; details: orally administered

Structure (SMILES): CC(/C=C/C(=O)NO)=C\[C@@H](C)C(=O)c1ccc(N(C)C)cc1 [TSA, trichostatin A]
- inhibition of HDAC-like protein (HDLP) [1]: inhibited

Structure (SMILES): O=C(CCCCCCC(=O)Nc1ccccc1)NO [SAHA, suberoylanilide hydroxamic acid]
- motor impairment in mice [2]: dramatically improved the motor impairment
